Here are results for 79 molecules from ChEMBL document CHEMBL3603819, “Targeting zoonotic viruses: Structure-based inhibition of the 3C-like protease from bat coronavirus HKU4--The likely reservoir host to the human coronavirus that causes Middle East Respiratory Syndrome (MERS)” (Bioorg Med Chem, 2015).

Molecules are shown by their SMILES.

The assay deals with Tylonycteris bat coronavirus HKU4. The following applies: at 100 µM.

As a reminder, the inhibition is the percentage by which the read-out fell short of the control. Take `Cc1ccoc1C(=O)N(c1ccc(C(C)C)cc1)C(C(=O)NC(C)(C)C)c1cccnc1` (centres undefined): the inhibition turned out to be 36%.

`COc1ncccc1-c1ccc(N(Cc2ccsc2)C(=O)Cn2nnc3ccccc32)cc1` displayed an inhibition of 90%.

As to `CC(=O)Nc1ccc(N(C(=O)Cn2ccnn2)C(C(=O)NC(C)(C)C)c2ccsc2)cc1` (centres undefined), the inhibition was determined as 27%.

The molecule `CC(C)(C)NC(=O)C(c1ccsc1)N(C(=O)Cn1nnc2ccccc21)c1ccc(C(C)(C)C)cc1` (centres undefined) showed an inhibition of 9%.

`CC(C)(C)NC(=O)C(c1ccsc1)N(C(=O)Cc1cccc2ccccc12)c1ccc(F)cc1` (centres undefined) had an inhibition of 15%.

Regarding `CC(=O)Nc1ccc(N(C(=O)Cn2ccnc2C)C(C(=O)NC(C)(C)C)c2ccsc2)cc1` (centres undefined), the inhibition amounted to 17%.

`CC(C)(C)NC(=O)C(c1cccnc1)N(C(=O)c1n[nH]c2ccccc12)c1ccc(C(C)(C)C)cc1` (centres undefined) yielded an inhibition of 23%.

Take `Cc1nc2ccccc2n1CC(=O)N(c1ccc(NS(C)(=O)=O)cc1)C(C(=O)NC(C)(C)C)c1ccsc1` (centres undefined): the inhibition turned out to be 13%.

`O=C(NCc1ccccc1)C(c1cccc(F)c1)N(C(=O)Cn1nnc2ccccc21)C1CC2CCC1C2` (centres undefined) displayed an inhibition of 12%.

Molecule `CC(C)(C)NC(=O)C(c1cccnc1)N(C(=O)C1CCCO1)c1ccc(C(C)(C)C)cc1` (centres undefined) registered an inhibition of 18%.

Take `CC(C)c1ccc(N(C(=O)c2ccc(C(F)(F)F)nc2)C(C(=O)NC(C)(C)C)c2ccsc2)cc1` (centres undefined): the inhibition was determined as 15%.

`CC(C)COC(=O)Nc1ccc(N(Cc2ccsc2)C(=O)Cn2nnc3ccccc32)cc1` showed an inhibition of 75%.

Molecule `CC(C)(C)NC(=O)C(c1cncnc1)N(C(=O)c1cnco1)c1ccc(C(C)(C)C)cc1` (centres undefined) showed an inhibition of 58%.

Molecule `CC(=O)Nc1ccc(N(C(=O)Cn2nnc3ccccc32)C(C(=O)NC(C)(C)C)c2cccc(F)c2)cc1` (centres undefined) registered an inhibition of 71%.

In the case of `CC(C)(C)NC(=O)C(c1c[nH]nn1)N(C(=O)c1ccco1)c1ccc(C(C)(C)C)cc1` (centres undefined), the inhibition is 16%.

`CC(C)(C)NC(=O)C(c1ccsc1)N(C(=O)c1cccc2c1CCCC2)c1ccc(OCF)cc1` (centres undefined) yielded an inhibition of 15%.

For `CCC(C)Oc1ccc(N(C(=O)c2ccco2)C(C(=O)NC(C)(C)C)c2cccnc2)cc1` (centres undefined), the inhibition amounted to 20%.

In turn, `CC(C)COC(=O)Nc1ccc(N(C(=O)Cn2nnc3ccccc32)C(C(=O)NC(C)(C)C)c2ccsc2)cc1` (centres undefined) gave an inhibition of 19%.

Molecule `CC(C)c1ccc(N(C(=O)c2ccco2)C(C(=O)NC(C)(C)C)c2ccsc2)cc1` (centres undefined) had an inhibition of 18%.

The molecule `CC(C)c1ccc(N(C(=O)c2n[nH]c3ccccc23)C(C(=O)NC(C)(C)C)c2cccnc2)cc1` (centres undefined) gave an inhibition of 21%.

`CC(C)(C)NC(=O)C(c1cccnc1)N(C(=O)c1ccc(C#N)cc1)c1ccc(F)cc1` (centres undefined) registered an inhibition of 53%.

`CC(C)(C)NC(=O)C(c1ccsc1)N(C(=O)c1cccc2c1CCCC2)C1CC1` (centres undefined) had an inhibition of 14%.

As for `CC(C)(C)NC(=O)C(c1ccsc1)N(C(=O)c1cccc2c1CCCC2)c1ccc(F)cc1` (centres undefined), the inhibition is 17%.

For the molecule `COc1ccc(N(C(=O)c2ccco2)C(C(=O)NC(C)(C)C)c2cccnc2)cc1` (centres undefined), the inhibition came out at 10%.

Regarding `CC(C)(C)NC(=O)C(c1ccsc1)N(C(=O)Cc1c[nH]c2ccccc12)c1ccc(OCF)cc1` (centres undefined), the inhibition came out at 25%.

`CCC(=O)Nc1ccc(N(C(=O)Cn2nnc3ccccc32)C(C(=O)NC(C)(C)C)c2ccsc2)cc1` (centres undefined) yielded an inhibition of 34%.

`CC(C)c1ccc(N(C(=O)c2ccc(C(F)(F)F)nc2)C(C(=O)NC(C)(C)C)c2cccnc2)cc1` (centres undefined) came in with an inhibition of 18%.

`CC(C)(C)NC(=O)C(c1cccnc1)N(C(=O)c1ncco1)c1ccc(C(C)(C)C)cc1` (centres undefined) showed an inhibition of 30%.

In turn, `CC(C)C(=O)Nc1ccc(N(Cc2ccsc2)C(=O)Cn2cc([Si](C)(C)C)nn2)cc1` yielded an inhibition of 15%.

The molecule `CCCOc1ccc(N(C(=O)c2ccco2)C(C(=O)NC(C)(C)C)c2cccnc2)cc1` (centres undefined) yielded an inhibition of 10%.

As for `Cc1nccn1CC(=O)N(c1ccc(N)cc1)C(C(=O)NC(C)(C)C)c1ccsc1` (centres undefined), the inhibition turned out to be 17%.

The molecule `CC(C)(C)NC(=O)C(c1cn[nH]c1)N(C(=O)c1ccco1)c1ccc(C(C)(C)C)cc1` (centres undefined) came in with an inhibition of 12%.

`CC(C)(C)NC(=O)C(c1cccnc1)N(C(=O)c1n[nH]c2ccccc12)c1ccc(OC(F)F)cc1` (centres undefined) displayed an inhibition of 24%.

`CC(C)(C)NC(=O)C(c1cccnc1)N(C(=O)c1ccco1)C1CCCCC1` (centres undefined) yielded an inhibition of 6%.

`CC(C)(C)NC(=O)C(c1cccnc1)N(C(=O)c1ccc(C#N)cc1)C1CC1` (centres undefined) gave an inhibition of 23%.

On to `CC(C)C(=O)Nc1ccc(N(Cc2ccsc2)C(=O)Cn2cc(-c3ccccc3)nn2)cc1`, for which the inhibition was 25%.

Take `CC(C)(C)NC(=O)C(c1cccnc1)N(C(=O)c1ccco1)c1ccc(-c2cccc(C#N)c2)cc1` (centres undefined): the inhibition is 16%.

In turn, `Cc1nc2ccccc2n1CC(=O)N(c1ccc(NC(=O)C(C)C)cc1)C(C(=O)NC(C)(C)C)c1ccsc1` (centres undefined) registered an inhibition of 14%.

Regarding `CC(C)(C)NC(=O)C(c1ccsc1)N(C(=O)c1ccc(C(F)(F)F)cn1)c1ccc(OCF)cc1` (centres undefined), the inhibition was 18%.

On to `CNc1ccc(N(Cc2ccsc2)C(=O)Cn2nnc3ccccc32)cc1`, for which the inhibition amounted to 91%.

`CC(C)(C)NC(=O)C(c1cccnc1)N(C(=O)c1ccco1)c1ccc(-c2ccc(F)c(F)c2)cc1` (centres undefined) displayed an inhibition of 12%.

`CC(=O)Nc1ccc(N(C(=O)Cn2nnc3ccccc32)C(C(=O)NC(C)(C)C)c2ccsc2)cc1` (centres undefined) displayed an inhibition of 53%.

For `CC(C)(C)NC(=O)C(c1cccnc1)N(C(=O)Cc1c[nH]c2ccccc12)c1ccc(C(C)(C)C)cc1` (centres undefined), the inhibition was determined as 79%.

Take `CC(C)(C)NC(=O)C(c1cccnc1)N(C(=O)c1ccco1)c1ccc(/C=C/c2ccccc2)cc1` (centres undefined): the inhibition is 21%.

`O=C(Cn1nnc2ccccc21)N(Cc1ccsc1)c1ccc(NCc2ccccc2)cc1` gave an inhibition of 64%.

Regarding `CC(C)C(=O)Nc1ccc(N(C(=O)Cn2nnc3ccccc32)C(C(=O)NC(C)(C)C)c2ccsc2)cc1` (centres undefined), the inhibition amounted to 76%.

On to `CC(C)(C)NC(=O)C(c1cccnc1)N(C(=O)Cc1ccccc1)c1ccc(C(C)(C)C)cc1` (centres undefined), for which the inhibition came out at 20%.

Regarding `CC(C)Oc1ccc(N(C(=O)c2ccco2)C(C(=O)NC(C)(C)C)c2cccnc2)cc1` (centres undefined), the inhibition was 13%.

Molecule `Cc1ccc(C(=O)N(c2ccc(C(C)(C)C)cc2)C(C(=O)NC(C)(C)C)c2cccnc2)o1` (centres undefined) returned an inhibition of 26%.

Regarding `CC(C)(C)NC(=O)C(c1cccnc1)N(C(=O)c1ccc(C(F)(F)F)cn1)C1CC1` (centres undefined), the inhibition came to 42%.

`CC(C)(C)NC(=O)C(c1ccsc1)N(C(=O)Cn1nnc2ccccc21)c1ccc(NC(=O)C(C)(C)C)cc1` (centres undefined) registered an inhibition of 18%.

Regarding `CC(C)c1ccc(N(C(=O)Cc2c[nH]c3ccccc23)C(C(=O)NC(C)(C)C)c2ccsc2)cc1` (centres undefined), the inhibition worked out at 25%.

Take `CC(C)COc1ccc(N(C(=O)c2ccco2)C(C(=O)NC(C)(C)C)c2cccnc2)cc1` (centres undefined): the inhibition stood at 25%.

`CC(C)(C)NC(=O)C(c1cccnc1)N(C(=O)c1ccco1)c1ccc(-c2ccccn2)cc1` (centres undefined) came in with an inhibition of 15%.

Take `CC(C)(C)NC(=O)C(c1cccnc1)N(C(=O)Cc1cnc[nH]1)c1ccc(C(C)(C)C)cc1` (centres undefined): the inhibition is 24%.

`CC(C)(C)NC(=O)C(c1cccnc1)N(C(=O)c1ccco1)c1ccc(Oc2ccccc2)cc1` (centres undefined): the inhibition stood at 19%.

As for `CC(C)(C)NC(=O)C(c1cccnc1)N(C(=O)c1cnccn1)c1ccc(C(C)(C)C)cc1` (centres undefined), the inhibition worked out at 41%.

For `CC(C)(C)NC(=O)C(c1cccnc1)N(C(=O)Cc1cccnc1)c1ccc(F)cc1` (centres undefined), the inhibition worked out at 47%.

For the molecule `CC(C)(C)NC(=O)C(c1cccnc1)N(C(=O)Cc1cccc2ccccc12)c1ccc(F)cc1` (centres undefined), the inhibition was found to be 22%.

Consider `CC(C)(C)NC(=O)C(c1cccnc1)N(C(=O)Cc1cccc2ccccc12)c1ccc(OCF)cc1` (centres undefined), for which the inhibition worked out at 21%.

`O=C(Nc1ccc(N(C(=O)Cn2nnc3ccccc32)C(C(=O)NCc2ccccc2)c2cccc(F)c2)cc1)C1CCC1` (centres undefined) gave an inhibition of 74%.

As to `Cc1nc2ccccc2n1CC(=O)N(c1ccc(C(C)(C)C)cc1)C(C(=O)NC(C)(C)C)c1ccsc1` (centres undefined), the inhibition was 19%.

Turning to `CC(C)(C)NC(=O)C(c1ccc(C(C)(C)C)cc1)N(C(=O)c1ccco1)c1ccc(C(C)(C)C)cc1` (centres undefined), the inhibition is 26%.

In the case of `CC(C)(C)NC(=O)C(c1cccnc1)N(C(=O)c1ccco1)c1ccc(-c2cncnc2)cc1` (centres undefined), the inhibition turned out to be 14%.

`Cc1nccn1CC(=O)N(c1ccc(NC(=O)C(C)C)cc1)C(C(=O)NC(C)(C)C)c1ccsc1` (centres undefined) returned an inhibition of 18%.

`CC(C)(C)NC(=O)C(c1cccnc1)N(C(=O)c1ccco1)c1ccc(OCc2ccccc2)cc1` (centres undefined): the inhibition is 14%.

With `CC(C)(C)NC(=O)C(c1cccnc1)N(C(=O)c1ccco1)c1ccc(OC(F)F)cc1` (centres undefined), the inhibition amounted to 31%.

The molecule `CC(C)(C)NC(=O)C(c1ccsc1)N(C(=O)Cn1cnc2ccccc21)c1ccc(NS(C)(=O)=O)cc1` (centres undefined) displayed an inhibition of 28%.

With `CC(C)(C)NC(=O)C(c1ccsc1)N(C(=O)c1ccc(C(F)(F)F)nc1)c1ccc(C(C)(C)C)cc1` (centres undefined), the inhibition came to 17%.

Molecule `CC(C)(C)NC(=O)C(c1ccsc1)N(C(=O)Cc1cccnc1)c1ccc(OCF)cc1` (centres undefined) came in with an inhibition of 29%.

As to `COc1ccc(C(=O)N(c2ccc(C(C)(C)C)cc2)C(C(=O)NC(C)(C)C)c2cccnc2)cc1` (centres undefined), the inhibition came out at 16%.

`COCC(=O)N(c1ccc(C(C)C)cc1)C(C(=O)NC(C)(C)C)c1cccnc1` (centres undefined): the inhibition is 23%.

`O=C(Nc1ccc(N(C(=O)Cn2nnc3ccccc32)C(C(=O)NCc2ccccc2)c2cccc(F)c2)cc1)C1CC1` (centres undefined) registered an inhibition of 71%.

As to `CC(C)c1ccc(N(C(=O)c2cccc3c2CCCC3)C(C(=O)NC(C)(C)C)c2ccsc2)cc1` (centres undefined), the inhibition came out at 20%.

The molecule `O=C(Nc1ccc(N(Cc2ccsc2)C(=O)Cn2nnc3ccccc32)cc1)C1CCC1` showed an inhibition of 94%.

`CC(C)(C)NC(=O)C(c1cccnc1)N(C(=O)c1cccc2c1CCCC2)c1ccc(C(C)(C)C)cc1` (centres undefined): the inhibition amounted to 21%.

`COCCC(=O)Nc1ccc(N(Cc2ccsc2)C(=O)Cn2nnc3ccccc32)cc1` showed an inhibition of 94%.

With `CC(C)(C)NC(=O)C(c1ccsc1)N(C(=O)c1ccc(C#N)cc1)c1ccc(OCF)cc1` (centres undefined), the inhibition amounted to 16%.

`CC(C)(C)NC(=O)C(c1ccsc1)N(C(=O)c1ccco1)c1ccc(OC(F)F)cc1` (centres undefined) registered an inhibition of 13%.
